Source: patent US11028079B2 (ConverGene LLC, priority 2015, dated 2021)

Each molecule was assayed against T1, BRD4 bromodomains (Homo sapiens, UniProt O60885) (assay: BROMOscan bromodomain competition binding assay (DiscoveRx)). Details: Kd from 11 compound concentrations ranging from 0 to 10 μM, read-out: BROMOscan Relative Activity.
T1 construct: fused on or other part: T7 phage capsid protein (phage-display fusion; the phage DNA is read out by qPCR)
How it was run: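 Compounds in 0.1% DMSO/0.9% MEG competed with a solid-phase acetylated peptide for T7 phage-fused BRD4 bromodomains, with the retained bromodomain measured by qPCR.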
`Cc1noc(C)c1-c1ccc2nc(C(=O)N(C)C3CCN(C)CC3)nc(NCc3cccc(Cl)c3)c2c1` [Example 211, 4-((3-chlorobenzyl)amino)-6-(3,5-dimethylisoxazol-4-yl)-N-methyl-N-(1-methylpiperidin-4-yl)quinazoline-2-carboxamide] was tested, and the Kd was < 0.5 µM. With `Cc1noc(C)c1-c1ccc2nc(C(=O)NCc3ccncc3)nc(NCc3cccc(Cl)c3)c2c1` [Example 171, 4-((3-chlorobenzyl)amino)-6-(3,5-dimethylisoxazol-4-yl)-N-(pyridin-4-ylmethyl)quinazoline-2-carboxamide] the Kd was < 0.5 µM. In the case of `Cc1noc(C)c1-c1ccc2nc(N3CCN(CCO)CC3)nc(NCc3cncc(Cl)c3)c2c1` [Example 120, 2-(4-(4-(((5-chloropyridin-3-yl)methyl)amino)-6-(3,5-dimethylisoxazol-4-yl)quinazolin-2-yl)piperazin-1-yl)ethanol], the Kd is reported as < 0.5 µM. For `Cc1noc(C)c1-c1ccc2nc(N3CCN(C(=O)CO)CC3)nc(NCc3cccc(Cl)c3)c2c1` [Example 36, 1-(4-(4-((3-chlorobenzyl)amino)-6-(3,5-dimethylisoxazol-4-yl)quinazolin-2-yl)piperazin-1-yl)-2-hydroxyethanone], the Kd was < 0.5 µM. `Cc1noc(C)c1-c1ccc2nc(C(=O)N3CCc4[nH]ncc4C3)nc(N3CCOC[C@@H]3c3ccccc3)c2c1` [Example 285, (S)-(6-(3,5-dimethylisoxazol-4-yl)-4-(3-phenylmorpholino)quinazolin-2-yl)(1,4,6,7-tetrahydro-5H-pyrazolo[4,3-c]pyridin-5-yl)methanone] gave a Kd of 0.5 to 5 µM. For `CNC(=O)Cn1cc(-c2nc(NC3(c4cccc(Cl)c4)CC3)c3cc(-c4c(C)noc4C)ccc3n2)cn1` [Example 181, 2-(4-(4-((1-(3-chlorophenyl)cyclopropyl)amino)-6-(3,5-dimethylisoxazol-4-yl)quinazolin-2-yl)-1H-pyrazol-1-yl)-N-methylacetamide], the Kd was < 0.5 µM. With `Cc1noc(C)c1-c1ccc2nc(N3CCN(CCN(C)C)CC3)nc(N3CCCCC3c3ccccc3)c2c1` (stereo not shown) [Example 175, 2-(4-(6-(3,5-dimethylisoxazol-4-yl)-4-(2-phenylpiperidin-1-yl)quinazolin-2-yl)piperazin-1-yl)-N,N-dimethylethanamine] the Kd was < 0.5 µM. Molecule `Cc1noc(C)c1-c1ccc2nc(C(=O)N3CCc4c(cnn4C)C3)nc(N3CCOC[C@@H]3c3ccccc3)c2c1` [Example 276, (S)-(6-(3,5-dimethylisoxazol-4-yl)-4-(3-phenylmorpholino)quinazolin-2-yl)(1-methyl-1,4,6,7-tetrahydro-5H-pyrazolo[4,3-c]pyridin-5-yl)methanone] has a Kd of 0.5 to 5 µM. For `Cc1noc(C)c1-c1ccc2nc(N3CCC(C)(C#N)CC3)nc(NCc3cncc(Cl)c3)c2c1` [Example 157, 1-(4-(((5-chloropyridin-3-yl)methyl)amino)-6-(3,5-dimethylisoxazol-4-yl)quinazolin-2-yl)-4-methylpiperidine-4-carbonitrile], the Kd was < 0.5 µM. For `Cc1noc(C)c1-c1ccc2nc(C(=O)N3CCc4[nH]ncc4C3)nc(NC3(c4cccc(Cl)c4)CC3)c2c1` [Example 286, (4-((1-(3-chlorophenyl)cyclopropyl)amino)-6-(3,5-dimethylisoxazol-4-yl)quinazolin-2-yl)(1,4,6,7-tetrahydro-5H-pyrazolo[4,3-c]pyridin-5-yl)methanone], the Kd was < 0.5 µM. `Cc1noc(C)c1-c1ccc2nc(C(=O)NC3CCS(=O)(=O)CC3)nc(NCc3cccc(Cl)c3)c2c1` [Example 204, 4-((3-chlorobenzyl)amino)-6-(3,5-dimethylisoxazol-4-yl)-N-(1,1-dioxidotetrahydro-2H-thiopyran-4-yl)quinazoline-2-carboxamide] was tested, and the Kd was < 0.5 µM. With `Cc1noc(C)c1-c1ccc2nc(N3CCC(S(C)(=O)=O)CC3)nc(NCc3cncc(Cl)c3)c2c1` [Example 154, N-((5-chloropyridin-3-yl)methyl)-6-(3,5-dimethylisoxazol-4-yl)-2-(4-(methylsulfonyl)piperidin-1-yl)quinazolin-4-amine] the Kd was < 0.5 µM. Work on `Cc1noc(C)c1-c1ccc2cc(N3CCN(CCO)CC3)nc(NCc3cccc(Cl)c3)c2c1` [Example 44, 2-(4-(1-((3-chlorobenzyl)amino)-7-(3,5-dimethylisoxazol-4-yl)isoquinolin-3-yl)piperazin-1-yl)ethanol] yielded a Kd of 0.5 to 5 µM. `Cc1noc(C)c1-c1ccc2nc(N3CCN(CCN(C)C)CC3)nc(NCc3cncc(Cl)c3)c2c1` [Example 81, N-((5-chloropyridin-3-yl)methyl)-2-(4-(2-(dimethylamino)ethyl)piperazin-1-yl)-6-(3,5-dimethylisoxazol-4-yl)quinazolin-4-amine] was tested, and the Kd was < 0.5 µM. With `Cc1noc(C)c1-c1ccc2nc(C(=O)NC3CN(C)C3)nc(NCc3cccc(Cl)c3)c2c1` [Example 198, 4-((3-chlorobenzyl)amino)-6-(3,5-dimethylisoxazol-4-yl)-N-(1-methylazetidin-3-yl)quinazoline-2-carboxamide] the Kd was < 0.5 µM. In the case of `Cc1noc(C)c1-c1ccc2nc(C(=O)NC3CCS(=O)(=O)CC3)nc(N3CCOC[C@@H]3c3ccccc3)c2c1` [Example 275, (S)-6-(3,5-dimethylisoxazol-4-yl)-N-(1,1-dioxidotetrahydro-2H-thiopyran-4-yl)-4-(3-phenylmorpholino)quinazoline-2-carboxamide], the Kd is reported as < 0.5 µM. For `Cc1noc(C)c1-c1ccc2nc(C(=O)N[C@H]3CC[C@H](O)CC3)nc(N3CCOC[C@@H]3c3ccccc3)c2c1` [Example 273, 6-(3,5-dimethylisoxazol-4-yl)-N-((trans)-4-hydroxycyclohexyl)-4-((S)-3-phenylmorpholino)quinazoline-2-carboxamide], the Kd was < 0.5 µM. For `Cc1noc(C)c1-c1ccc2nc(C(=O)NC3CCN(C)CC3)nc(NCc3cncc(Cl)c3)c2c1` [Example 209, 4-(((5-chloropyridin-3-yl)methyl)amino)-6-(3,5-dimethylisoxazol-4-yl)-N-(1-methylpiperidin-4-yl)quinazoline-2-carboxamide], the Kd was < 0.5 µM. In the case of `Cc1noc(C)c1-c1ccc2nc(N3CCN(CCN(C)C)CC3)nc(NCc3ccc(F)cc3)c2c1` [Example 99, 2-(4-(2-(dimethylamino)ethyl)piperazin-1-yl)-6-(3,5-dimethylisoxazol-4-yl)-N-(4-fluorobenzyl)quinazolin-4-amine], the Kd is reported as 0.5 to 5 µM. For `Cc1noc(C)c1-c1ccc2nc(N3CCN(C(=O)CN)CC3)nc(NCc3cccc(Cl)c3)c2c1` [Example 55, 2-amino-1-(4-(4-((3-chlorobenzyl)amino)-6-(3,5-dimethylisoxazol-4-yl)quinazolin-2-yl)piperazin-1-yl)ethanone], the Kd was < 0.5 µM. With `Cc1noc(C)c1-c1ccc2nc(NC3CCN(C)CC3)nc(NCc3cccc(Cl)c3)c2c1` [Example 7, N4-(3-chlorobenzyl)-6-(3,5-dimethylisoxazol-4-yl)-N2-(1-methylpiperidin-4-yl)quinazoline-2,4-diamine] the Kd was < 0.5 µM. For `CNC(=O)CN1CCN(c2nc(N3CCOC[C@@H]3c3ccccc3)c3cc(-c4c(C)noc4C)ccc3n2)CC1` [Example 298], the Kd was < 0.5 µM. For `Cc1noc(C)c1-c1ccc2nc(-c3cnn(CC(C)(C)O)c3)nc(N3CCOC[C@@H]3c3ccccc3)c2c1` [Example 262, (S)-1-(4-(6-(3,5-dimethylisoxazol-4-yl)-4-(3-phenylmorpholino)quinazolin-2-yl)-1H-pyrazol-1-yl)-2-methylpropan-2-ol], the Kd was < 0.5 µM. With `Cc1noc(C)c1-c1ccc2nc(C3=CCN(S(C)(=O)=O)CC3)nc(NCc3cccc(Cl)c3)c2c1` [Example 210, N-(3-chlorobenzyl)-6-(3,5-dimethylisoxazol-4-yl)-2-(1-(methylsulfonyl)-1,2,3,6-tetrahydropyridin-4-yl)quinazolin-4-amine] the Kd was 0.5 to 5 µM. `Cc1noc(C)c1-c1ccc2nc(N3CCN(C(=O)c4cnn(C)c4)CC3)nc(N3CCOC[C@@H]3c3ccccc3)c2c1` [Example 300, (S)-(4-(6-(3,5-dimethylisoxazol-4-yl)-4-(3-phenylmorpholino)quinazolin-2-yl)piperazin-1-yl)(1-methyl-1H-pyrazol-4-yl)methanone] was tested, and the Kd was < 0.5 µM. For `CC(=O)N1CCN(c2nc(-c3cnn(CC(C)(C)O)c3)nc3ccc(-c4c(C)noc4C)cc23)[C@@H](c2ccccc2)C1` [Example 309, (S)-1-(4-(6-(3,5-dimethylisoxazol-4-yl)-2-(1-(2-hydroxy-2-methylpropyl)-1H-pyrazol-4-yl)quinazolin-4-yl)-3-phenylpiperazin-1-yl)ethan-1-one], the Kd was < 0.5 µM. In the case of `CN(C)C(=O)CN1CCN(c2nc(NCc3cncc(Cl)c3)c3cc(-c4ccc(=O)n(C)c4)ccc3n2)CC1` [Example 129, 2-(4-(4-(((5-chloropyridin-3-yl)methyl)amino)-6-(1-methyl-6-oxo-1,6-dihydropyridin-3-yl)quinazolin-2-yl)piperazin-1-yl)-N,N-dimethylacetamide], the Kd is reported as < 0.5 µM. In the case of `Cc1noc(C)c1-c1ccc2nc(-c3cnn(CC(=O)N(C)C)c3)nc(N3CCOC[C@@H]3c3ccccc3)c2c1` [Example 301, (S)-2-(4-(6-(3,5-dimethylisoxazol-4-yl)-4-(3-phenylmorpholino)quinazolin-2-yl)-1H-pyrazol-1-yl)-N,N-dimethylacetamide], the Kd is reported as < 0.5 µM. In the case of `Cc1n[nH]c(C)c1-c1ccc2nc(N3CCN(CCN(C)C)CC3)nc(NCc3cccc(Cl)c3)c2c1` [Example 65, N-(3-chlorobenzyl)-6-(3,5-dimethyl-1H-pyrazol-4-yl)-2-(4-(2-(dimethylamino)ethyl)piperazin-1-yl)quinazolin-4-amine], the Kd is reported as 0.5 to 5 µM. For `CN(C)CCCN1CCN(c2nc(NCc3cccc(Cl)c3)c3cc(-c4ccc(=O)n(C)c4)ccc3n2)CC1` [Example 123, 5-(4-((3-chlorobenzyl)amino)-2-(4-(3-(dimethylamino)propyl)piperazin-1-yl)quinazolin-6-yl)-1-methylpyridin-2(1H)-one], the Kd was < 0.5 µM. `Cc1noc(C)c1-c1ccc2nc(N3CCC(CCO)CC3)nc(NCc3cccc(Cl)c3)c2c1` [Example 30, 2-(1-(4-((3-chlorobenzyl)amino)-6-(3,5-dimethylisoxazol-4-yl)quinazolin-2-yl)piperidin-4-yl)ethanol] was tested, and the Kd was 0.5 to 5 µM.
